Measurements published in patent US9650340B2, “5-fluoro-N-(pyridin-2-yl)pyridin-2-amine derivatives containing a sulfoximine group” (BAYER PHARMA AKTIENGESELLSCHAFT, priority 2012, dated 2017).
In brackets after ≈: the same amount, converted by molar mass. Where two headings read alike, the source gives them in different places.

How the values were obtained:
[1] = tested on: Caco-2, human colorectal carcinoma cells; experiment: Proliferation assay, Caco-2 (crystal violet); format: cell-based; settings: Caco-2, 4 days, read-out: Inhibition of Caco-2 cell proliferation IC50
Protocol: (§1) Cultivated tumour cells (HeLa, human cervical tumour cells, ATCC CCL-2; NCI-H460, human non-small cell lung carcinoma cells, ATCC HTB-177; A2780, human ovarian carcinoma cells, ECACC #93112519; DU 145, hormone-independent human prostate carcinoma cells, ATCC HTB-81; HeLa-MaTu-ADR, multidrug-resistant human cervical carcinoma cells, EPO-GmbH Berlin; Caco-2, human colorectal carcinoma cells, ATCC HTB-37; B16F10, mouse melanoma cells, ATCC CRL-6475) were plated at a density of 5,000 cells/well (DU145, HeLa-MaTu-ADR), 3,000 cells/well (NCI-H460, HeLa), 2,500 cells/well (A2780), 1,500 cells/well (Caco-2), or 1,000 cells/well (B16F10) in a 96-well multititer plate in 200 μL of their respective growth medium supplemented 10% fetal calf serum. After 24 hours, the cells of one plate (zero-point plate) were stained with crystal violet (see below), while the medium of the other plates was replaced by fresh culture medium (200 μl), to which the test substances were added in various concentrations (0 μM, as well as in the range of 0.001-10 μM; the final concentration of the solvent dimethyl sulfoxide was 0.5%). The cells were incubated for 4 days in the presence of test substances. Cell proliferation was determined by staining the cells with crystal violet: the cells were fixed by adding 20 μl/measuring point of an 11% glutaric aldehyde solution for 15 minutes at room temperature. After three washing cycles of the fixed cells with water, the plates were dried at room temperature. The cells were stained by adding 100 μl/measuring point of a 0.1% crystal violet solution (pH 3.0). After three washing cycles of the stained cells with water, the plates were dried at room temperature. The dye was dissolved by adding 100 μl/measuring point of a 10% acetic acid solution. The extinction was determined by photometry at a wavelength of 595 nm. The change of cell number, in percent, was calculated by normalization of the measured values to the extinction values of the zero-point plate (=0%) and the extinction of the untreated (0 μm) cells (=100%). The IC50 values (inhibitory concentration at 50% of maximal effect) were determined by means of a 4 parameter fit. Non-adherent MOLM-13 human acute myeloid leukemia cells (DSMZ ACC 554) were seeded at a density of 5,000 cells/well in a 96-well multititer plate in 100 μL of growth medium supplemented 10% fetal calf serum. After 24 hours, cell viability of one plate (zero-point plate) was determined with the Cell Titre-Glo Luminescent Cell Viability Assay (Promega), while 50 μL of test compound containing medium was added to the wells of the other plates (final concentrations in the range of 0.001-10 μM and DMSO controls; the final concentration of the solvent dimethyl sulfoxide was 0.5%). Cell viability was assessed after 72-hour exposure with the Cell Titre-Glo Luminescent Cell Viability Assay (Promega).

[2] = Equilibrium shake flask solubility assay, thermodynamic solubility in citrate buffer pH 4; format: physicochemical; settings: citrate buffer pH 4, 24 h, room temperature; for solubility at 24 h: citrate buffer, pH 4, aqueous buffer, thermodynamic from solid, read-out: Solubility in aqueous Citrate buffer pH4
Protocol: 4b) Thermodynamic Solubility in Citrate Buffer pH 4
Thermodynamic solubility was determined by an equilibrium shake flask method [Literature: Edward H. Kerns and Li Di (2008) Solubility Methods in: Drug-like Properties: Concepts, Structure Design and Methods, p276-286. Burlington, Mass.: Academic Press].
A saturated solution of the drug was prepared and the solution was mixed for 24 h to ensure that equilibrium has been reached. The solution was centrifuged to remove the insoluble fraction and the concentration of the compound in solution was determined using a standard calibration curve.
To prepare the sample, 1.5 mg solid compound was weighed in a 4 ml glass vial. 1 ml Citrate buffer pH 4 was added. The suspension was put on a stirrer and mixed for 24 hrs at room temperature. The solution was centrifuged afterwards. To prepare the sample for the standard calibration, 0.6 mg solid sample was dissolved in 19 ml acetonitrile/water 1:1. After sonification the solution was filled up with acetonitrile/water 1:1 to 20 ml.
Sample and standards were quantified by HPLC with UV-detection. For each sample two injection volumes (5 and 50 μl) in triplicates were made. Three injection volumes (5 μl, 10 μl and 20 μl) were made for the standard.
The areas of sample- and standard injections as well as the calculation of the solubility value (in mg/l) were determined by using HPLC software (Waters Empower 2 FR).

[3] = tested on: A2780, human ovarian carcinoma cells; experiment: Proliferation assay, A2780 (crystal violet); format: cell-based; settings: A2780, 4 days, read-out: Inhibition of A2780 cell proliferation IC50
Protocol: as §1

[4] = tested on: MOLM-13 human acute myeloid leukemia cells; experiment: Proliferation assay, MOLM-13 (Cell Titre-Glo); format: cell-based; settings: MOLM-13, 72-hour exposure, read-out: Inhibition of MOLM-13 cell proliferation IC50
Protocol: as §1

CDK9/CycT1 = target: T1, CDK9/CycT1 (Homo sapiens, UniProt P50750); experiment: CDK9/CycT1 kinase assay (TR-FRET, 10 μM ATP); format: biochemical; settings: Method 1a
T1 construct: Recombinant full-length His-tagged human CDK9 and CycT1; His; purchased Invitrogen PV4131; host or cells: insect cells
T1 sequence (P50750 whole entry): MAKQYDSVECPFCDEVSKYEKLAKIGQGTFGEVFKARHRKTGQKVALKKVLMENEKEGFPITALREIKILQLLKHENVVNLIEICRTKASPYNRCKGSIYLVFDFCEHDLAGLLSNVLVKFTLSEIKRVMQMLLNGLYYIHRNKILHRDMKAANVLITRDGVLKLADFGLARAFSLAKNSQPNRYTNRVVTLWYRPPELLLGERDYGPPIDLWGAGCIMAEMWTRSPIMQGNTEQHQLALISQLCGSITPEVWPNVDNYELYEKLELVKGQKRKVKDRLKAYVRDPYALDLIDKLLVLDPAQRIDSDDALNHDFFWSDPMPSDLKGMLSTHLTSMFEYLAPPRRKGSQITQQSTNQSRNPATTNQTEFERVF
T1 sequence (O60563 whole entry partner): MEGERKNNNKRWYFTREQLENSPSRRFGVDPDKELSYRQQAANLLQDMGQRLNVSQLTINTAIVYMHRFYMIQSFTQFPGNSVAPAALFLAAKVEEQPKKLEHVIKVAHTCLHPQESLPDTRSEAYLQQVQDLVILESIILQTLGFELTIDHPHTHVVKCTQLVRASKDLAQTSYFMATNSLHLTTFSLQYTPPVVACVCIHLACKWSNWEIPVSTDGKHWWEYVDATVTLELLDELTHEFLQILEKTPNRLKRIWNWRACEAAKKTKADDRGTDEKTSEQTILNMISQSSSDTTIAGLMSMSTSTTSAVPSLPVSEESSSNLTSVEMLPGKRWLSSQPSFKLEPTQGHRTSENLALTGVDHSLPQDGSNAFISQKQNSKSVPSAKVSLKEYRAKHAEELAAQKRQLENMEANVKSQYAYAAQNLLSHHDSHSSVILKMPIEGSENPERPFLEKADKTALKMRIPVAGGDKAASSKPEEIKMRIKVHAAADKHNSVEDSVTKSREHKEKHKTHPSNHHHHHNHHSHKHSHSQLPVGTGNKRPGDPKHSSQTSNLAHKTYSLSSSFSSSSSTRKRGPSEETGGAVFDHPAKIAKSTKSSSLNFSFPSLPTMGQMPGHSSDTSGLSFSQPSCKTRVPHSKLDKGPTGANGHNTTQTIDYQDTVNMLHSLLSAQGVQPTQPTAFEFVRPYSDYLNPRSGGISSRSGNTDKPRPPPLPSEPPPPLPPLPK
Source text: 1a. CDK9/CyeT1 Kinase Assay:
CDK9/CycT1-inhibitory activity of compounds of the present invention was quantified employing the CDK9/CycT1 TR-FRET assay as described in the following paragraphs:
Recombinant full-length His-tagged human CDK9 and CycT1, expressed in insect cells and purified by Ni-NTA affinity chromatography, were purchased from Invitrogen (Cat. No PV4131). As substrate for the kinase reaction biotinylated peptide biotin-Ttds-[…] (C-terminus in amid form) was used which can be purchased e.g. form the company JERINI Peptide Technologies (Berlin, Germany). For the assay 50 nl of a 100 fold concentrated solution of the test compound in DMSO was pipetted into a black low volume 384 well microtiter plate (Greiner Bio-One, Frickenhausen, Germany), 2 μl of a solution of CDK9/CycT1 in aqueous assay buffer [50 mM Tris/HCl pH 8.0, 10 mM MgCl2, 1.0 mM dithiothreitol, 0.1 mM sodium ortho-vanadate, 0.01% (v/v) Nonidet-P40 (Sigma)] were added and the mixture was incubated for 15 min at 22° C. to allow pre-binding of the test compounds to the enzyme before the start of the kinase reaction.
The resulting mixture was incubated 1 h at 22° C. to allow the formation of complex between the phosphorylated biotinylated peptide and the detection reagents. Subsequently the amount of phosphorylated substrate was evaluated by measurement of the resonance energy transfer from the Eu-chelate to the streptavidine-XL.

Row | SMILES | IC50 ([1]; Homo sapiens, Caco-2, 96 h) | solubility at 24 h [2] | IC50 ([3]; Homo sapiens, A2780, 96 h) | IC50 ([4]; Homo sapiens, MOLM-13, 72 h) | IC50 (CDK9/CycT1) | IC50 [1] | IC50 [3] | IC50 [4] | Solubility in aqueous Citrate buffer pH4 [2]
1 | COc1cc(F)ccc1-c1cc(Nc2cc(CS(C)(=N)=O)cc(C)n2)ncc1F (racemic) [Example 4, (rac)-5-Fluoro-4-(4-fluoro-2-methoxyphenyl)-N-{6-methyl-4-[(S-methylsulfonimidoyl)methyl]pyridin-2-yl}pyridin-2-amine] | 0.068 µM | 470 µg/mL (≈ 1120 µM) | 0.037 µM | 0.035 µM | 0.004 µM |  |  |  | 
2 | COc1cc(F)ccc1-c1cc(Nc2cc(CS(C)(=N)=O)cc(Cl)n2)ncc1F (racemic) [Example 7, (rac)-N-{6-Chloro-4-[(S-methylsulfonimidoyl)methyl]pyridin-2-yl}-5-fluoro-4-(4-fluoro-2-methoxyphenyl)pyridin-2-amine] | 0.041 µM |  | 0.027 µM | 0.028 µM | 0.002 µM |  |  |  | 
3 | COc1cc(F)ccc1-c1cc(Nc2cc(CS(=N)(=O)CCO)ccn2)ncc1F (racemic) [Example 8, (rac)-2-{S-[(2-{[5-Fluoro-4-(4-fluoro-2-methoxyphenyl)pyridin-2-yl]amino}pyridin-4-yl)methyl]sulfonimidoyl}ethanol] | 0.16 µM | 730 µg/mL (≈ 1680 µM) | 0.045 µM | 0.055 µM | 0.013 µM |  |  |  | 
4 | COc1cc(F)ccc1-c1cc(Nc2cc(CS(=N)(=O)CCN)ccn2)ncc1F (racemic) [Example 9, (rac)-N-(4-{[S-(2-Aminoethyl)sulfonimidoyl]methyl}pyridin-2-yl)-5-fluoro-4-(4-fluoro-2-methoxyphenyl)pyridin-2-amine] |  | 660 µg/mL (≈ 1520 µM) | 0.21 µM | 0.12 µM | 0.008 µM |  |  |  | 
5 | CCNC(=O)N=S(C)(=O)Cc1ccnc(Nc2cc(-c3ccc(F)cc3OC)c(F)cn2)c1 (racemic) [Example 12, (rac)-1-Ethyl-3-{[(2-{[5-fluoro-4-(4-fluoro-2-methoxyphenyl)pyridin-2-yl]amino}pyridin-4-yl)methyl](methyl)oxido-λ^6-sulfanylidene}urea] | 0.098 µM | 34 µg/mL (≈ 71.5 µM) | 0.026 µM | 0.029 µM | 0.002 µM |  |  |  | 
6 | CCOc1cc(F)ccc1-c1cc(Nc2cc(CS(C)(=N)=O)cc(F)n2)ncc1F (racemic) [Example 26, (rac)-4-(2-Ethoxy-4-fluorophenyl)-5-fluoro-N-{6-fluoro-4-[(S-methylsulfonimidoyl)methyl]pyridin-2-yl}pyridin-2-amine] | 0.086 µM |  | 0.036 µM | 0.044 µM | 0.003 µM |  |  |  | 
7 | COc1cc(F)ccc1-c1cc(Nc2cc(CS(C)(=N)=O)ccn2)ncc1F (single isomer, unassigned; (-)) [Example 3, (−)-5-Fluoro-4-(4-fluoro-2-methoxyphenyl)-N-{4-[(S-methylsulfonimidoyl)methyl]pyridin-2-yl}pyridin-2-amine] |  | 699 µg/mL (≈ 1730 µM) |  |  |  | 0.058 µM | 0.052 µM | 0.04 µM | 
8 | COc1cc(F)ccc1-c1cc(Nc2cc(CS(C)(=N)=O)cc(C(F)(F)F)n2)ncc1F (single isomer, unassigned; (-)) [Example 23, (−)-5-Fluoro-4-(4-fluoro-2-methoxyphenyl)-N-{4-[(S-methylsulfonimidoyl)methyl]-6-(trifluoromethyl)pyridin-2-yl}pyridin-2-amine] |  |  |  |  |  | 0.034 µM | 0.011 µM | 0.01 µM | 45 mg/l
9 | COc1cc(F)ccc1-c1cc(Nc2cc(CS(C)(=N)=O)ccn2)ncc1F.Cl (single isomer, unassigned; enantiomer 2) [Example 14, 5-Fluoro-4-(4-fluoro-2-methoxyphenyl)-N-{4-[(S-methylsulfonimidoyl)methyl]pyridin-2-yl}pyridin-2-amine hydrochloride; enantiomer 2] |  | 600 µg/mL |  |  |  | 0.037 µM |  |  | 

Second part, the compound after the results:

Row | IC50 ([1]; Homo sapiens, Caco-2, 96 h) | solubility at 24 h [2] | IC50 ([3]; Homo sapiens, A2780, 96 h) | IC50 ([4]; Homo sapiens, MOLM-13, 72 h) | IC50 (CDK9/CycT1) | IC50 [1] | IC50 [3] | IC50 [4] | Solubility in aqueous Citrate buffer pH4 [2] | SMILES
10 | 0.045 µM | 489 µg/mL (≈ 1210 µM) | 0.026 µM | 0.019 µM |  |  |  |  |  | COc1cc(F)ccc1-c1cc(Nc2cc(CS(C)(=N)=O)ccn2)ncc1F (racemic) [Example 1, (rac)-5-Fluoro-4-(4-fluoro-2-methoxyphenyl)-N-{4-[(S-methylsulfonimidoyl)methyl]pyridin-2-yl}pyridin-2-amine]
11 | 0.11 µM | 185 µg/mL (≈ 388 µM) | 0.023 µM | 0.042 µM | 0.001 µM |  |  |  |  | CCOC(=O)N=S(C)(=O)Cc1ccnc(Nc2cc(-c3ccc(F)cc3OC)c(F)cn2)c1 (racemic) [Example 11, (rac)-Ethyl{[(2-{[5-fluoro-4-(4-fluoro-2-methoxyphenyl)pyridin-2-yl]amino}pyridin-4-yl)methyl](methyl)oxido-λ^6-sulfanylidene}carbamate]
12 | 0.12 µM |  | 0.023 µM | 0.029 µM | 0.001 µM |  |  |  |  | COc1cc(F)ccc1-c1cc(Nc2cc(CS(C)(=O)=NC(C)=O)ccn2)ncc1F (racemic) [Example 13, (rac)-N-{[(2-{[5-Fluoro-4-(4-fluoro-2-methoxyphenyl)pyridin-2-yl]amino}pyridin-4-yl)methyl](methyl)oxido-λ^6-sulfanylidene}acetamide]
13 | 0.032 µM |  | 0.017 µM | 0.017 µM | 0.002 µM |  |  |  |  | COc1cc(F)ccc1-c1cc(Nc2cc(CS(C)(=N)=O)cc(C(F)(F)F)n2)ncc1F (racemic) [Example 21, (rac)-5-Fluoro-4-(4-fluoro-2-methoxyphenyl)-N-{4-[(S-methylsulfonimidoyl)methyl]-6-(trifluoromethyl)pyridin-2-yl}pyridin-2-amine]
